The source of these data is US5847125A, “Amino acid derivatives with anticholecystokinin activity” (James Black Foundation Limited, priority 1992, dated 1998).

The structures appear in SMILES notation. Like-named read-outs stand apart in the source and are kept apart here.

Assay [1] deals with T1, CCK (gallbladder) receptor (Cavia porcellus, UniProt Q63931).
T1 construct: Isolated, strip preparations were prepared from gall-bladders removed from male Dunkin-Hartley guinea-pigs; from tissue; host or cells: guinea-pig gall-bladder strips
T1 sequence (Q63931 1-430): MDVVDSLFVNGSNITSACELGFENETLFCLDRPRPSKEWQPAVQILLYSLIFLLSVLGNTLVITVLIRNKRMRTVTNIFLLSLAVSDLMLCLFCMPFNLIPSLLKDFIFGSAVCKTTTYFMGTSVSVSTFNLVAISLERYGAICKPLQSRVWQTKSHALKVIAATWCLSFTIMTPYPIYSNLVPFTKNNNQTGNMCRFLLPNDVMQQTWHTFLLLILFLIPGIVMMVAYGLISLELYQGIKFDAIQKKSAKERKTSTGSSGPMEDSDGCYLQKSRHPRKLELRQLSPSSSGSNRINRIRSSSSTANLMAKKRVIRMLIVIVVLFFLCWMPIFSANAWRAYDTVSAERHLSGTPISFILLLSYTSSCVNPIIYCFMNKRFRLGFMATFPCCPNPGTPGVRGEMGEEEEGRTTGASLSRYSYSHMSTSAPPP
The assay can be described thus: CCK-receptor bioassay, isolated guinea-pig gall-bladder strip preparations, CCK-8 as agonist. In kind it is cell-based, male Dunkin-Hartley guinea-pigs. To be noted: negative log10 of equilibrium dissociation constant, guinea-pig gall-bladder strips, CCK-8 agonist, test compound incubated for 60 minutes, 37° C; for Kb: read-out: pKB versus CCK (gallbladder) (converted). On the procedure: The compounds of the examples were assayed using a CCK-receptor bioassay as follows:
Isolated, strip preparations were prepared from gall-bladders removed from male Dunkin-Hartley guinea-pigs (250-500 g body weight) according to the method of La Morte, W. W., et al., J.P.E.T., 217, (3), 638-644 (1981).
The complete gall-bladder is removed and opened along the longitudinal axis. Strips measuring 3 mm in the longitudinal axis and 1 mm in the transverse axis are cut and then tied with cotton to stainless steel wires. The preparation is connected to a GRASS FTO3 isometric transducer under an initial loading tension of 1 g and is immersed in 20 mls of Krebs solution maintained at 37° C. and gassed with 95% O2 /5% CO2. The Krebs solution is as detailed above in connection with the fundus assay, except that the Ca^2+ concentration is decreased to 0.5 mM. After 30 mins the preparation is washed. Drug addition begins after an initial 90 min stabilisation period. Responses are measured as changes in tension from that immediately prior to any drug addition. Single cumulative agonist concentration-effect curves, using CCK-8 as agonist, are obtained on each preparation in the absence and presence of test compound which has been incubated for 60 minutes. The antagonist activity of the test compound is estimated and expressed as the negative logarithm (base 10) of the equilibrium dissociation constants (pKB) using the modifications of standard competitive analysis described by Black et al., Br. J. Pharmacol.,86,571-579, (1985) and Shankley et al., Br. J. Pharmacol.,94,264-274 (1988).

The next assay has as its target T2, CCKB receptor (Mus musculus, UniProt P56481).
T2 construct: CCKB receptor in mouse cortical membranes; from tissue; host or cells: mouse cerebral cortex membranes (male mice, Charles River)
T2 sequence (P56481 1-453): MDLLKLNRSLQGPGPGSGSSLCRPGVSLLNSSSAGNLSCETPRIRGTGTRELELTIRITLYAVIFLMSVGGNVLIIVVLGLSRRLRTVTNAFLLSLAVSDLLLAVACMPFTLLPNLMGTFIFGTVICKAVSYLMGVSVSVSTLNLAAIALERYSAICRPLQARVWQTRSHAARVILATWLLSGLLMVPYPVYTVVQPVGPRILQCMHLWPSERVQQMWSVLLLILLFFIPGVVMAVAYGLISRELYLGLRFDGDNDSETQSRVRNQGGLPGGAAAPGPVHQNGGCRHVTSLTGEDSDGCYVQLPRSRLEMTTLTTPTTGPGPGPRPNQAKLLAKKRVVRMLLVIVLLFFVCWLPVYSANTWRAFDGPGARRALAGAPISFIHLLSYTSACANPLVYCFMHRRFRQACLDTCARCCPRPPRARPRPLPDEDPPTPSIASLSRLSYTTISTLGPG
The assay can be described thus: CCKB radioligand binding assay in mouse cortical membranes, [125I] CCK-8S (selectivity testing). To be noted: [125I] CCK-8S 200 pM, 150 min at 21°; for Ki: pH 7.2, non-specific binding L-365,260, read-out: pKi CCKB (converted). Also on record: species or system male mice. As for the experimental part:
The compounds were assayed for selectivity with respect to the CCKB receptor in mouse cortical membranes by means of a radioligand binding assay. The procedure was as follows:
The whole brains from male mice (CDI 22-25 g; Charles River) were removed and placed in ice-cold buffer (pH 7.2 at 21°±3° C.) of the following composition (mM); 10 HEPES, 130 NaCl, 4.7 KCl, 5 MgCl2, 1 EDTA and containing 0.25 g. 1^-1 bacitracin.
The cortex was dissected, weighed and homogenised in 40 ml ice-cold buffer using a Teflon-in-glass homogeniser. The homogenate was centrifuged at 39,800 g for 20 min at 4° C., the supernatant discarded and the pellet resuspended by homogenisation in fresh buffer. The homogenate was recentrifuged (39,800 g; 20 min at 4° C.) and the final pellet was resuspended in HEPES buffer to give a tissue concentration of 2 mg ml^-1 (original wet weight).
The membranes (400 μl) were incubated for 150 min at 21°±3° C. in a final volume of 0.5 ml with HEPES buffer containing [^125 I] CCK-8S (0.05 ml; 200 pM NEN 2200Ci.mmol^-1) and competing compound. Total and non-specific binding of [^125 I] CCK-8S were defined using 0.05 ml of buffer and 0.05 ml of 10 mM L-365,260, respectively. The assay was terminated by rapid filtration through pre-soaked Whatman GF/B filters using a Brandell Cell harvester. The filters were washed (3×3 ml) with ice-cold 50 mM Tris-HCl (pH 7.4 at 4° C.) and bound radioactivity determined by counting (1 min.) in a gamma counter.

Another assay addresses T3, CCKA (Cavia porcellus, UniProt Q63931).
T3 construct: The pancreatata were removed from male guinea-pigs (200-300 g; Dunkin Hartley); from tissue; host or cells: guinea-pig pancreas membranes
T3 sequence (Q63931 1-430): T1 sequence (Q63931 1-430)
The assay can be described thus: CCKA binding assay, pancreas membranes, [125I]-CCK8(S). Also on record: species or system male guinea-pigs (Dunkin Hartley). On the procedure:
The compounds of the examples were also tested in a CCKA binding assay as follows:
The pancreatata were removed from male guinea-pigs (200-300 g; Dunkin Hartley) and placed in ice-cold HEPES buffer (pH 7.2@21°±3°). The pancreatata were homogenised in 40 ml ice-cold HEPES buffer using a polytron (Brinkmann, PT10, setting 10) 4×1 second. The homogenate was centrifuged at 39,800 g for 15 min at 4°. The supernatant was discarded and the pellet re-suspended using a Teflon-in-glass homogeniser in 20 volumes of fresh buffer and re-centrifuged as above. The final pellet was re-suspended using a Teflon-in-glass homogeniser to a tissue concentration of 1 mg ml^31 1 (original wet weight), and filtered through 500 μm pore-size Nytex mesh.
The membranes (400 μl; containing 0.375 μM PD134,308) are incubated for 150 minutes at 21°±3° in a final volume of 0.5 ml with HEPES buffer containing [^125 I]--CCK8 (S) (50 μl; 200 pM) and competing compound. Total and non-specific binding of [^125 I]--CCK8 (S) are defined using 50 μl of buffer and 50 μl of 100 nM L-364,718 respectively. The assay is terminated by rapid filtration through pre-soaked Whatman GF/B filters using a Brandell Cell Harvester. The filters were washed (3×3 ml) with ice-cold 50 mM Tris HCl (pH 7.4 at 4°) and bound radioactivity is determined by counting (1 min) in a gamma counter.

[2] abbreviates: guinea-pig pancreas membranes, [125I]-CCK8(S) 200 pM, 0.375 μM PD134,308, 150 minutes at 21°, non-specific binding 100 nM L-364,718, read-out: pKi CCKλ (converted).

For the compound `CCCCCN(CCCCC)C(=O)[C@H](CC(=O)O)NS(=O)(=O)c1ccc2ccccc2c1` [Example 1, 2-Naphthalenesulphonyl-L-aspartyl dipentylamide], the Kb in assay [1] is 200 nM. In addition, the figures for the Ki on CCKB receptor and on CCKA (setting [2]) were 7.94 µM and 251 nM, respectively.
For the compound `CCCCCN(CCCCC)C(=O)[C@@H](CCC(=O)O)NS(=O)(=O)c1ccc2ccccc2c1` [Example 2, 2-Naphthalenesulphonyl D-glutamyl dipentylamide], the Kb in assay [1] is 1000 nM. Further, the Ki at CCKB receptor is 3.98 µM; on CCKA (setting [2]) it was 158 nM.
On the same counts, the results for `CCCCN(CCCC)C(=O)[C@H](CC(=O)O)NS(=O)(=O)c1ccc2ccccc2c1` [Example 3, 2-Naphthalenesulphonyl-L-aspartyl dibutylamide] are 631 nM, 25.1 µM and 1000 nM.
Consider `CCCCCCN(CCCCCC)C(=O)[C@H](CC(=O)O)NS(=O)(=O)c1ccc2ccccc2c1` [Example 4, 2-Naphthalenesulphonyl-L-aspartyl dihexylamide], for which, in assay [1], the Kb was 158 nM. Moreover, the results for the Ki on CCKB receptor and at CCKA (setting [2]) were 5.01 µM and 126 nM, respectively.
On the same counts, the results for `CCCCCNC(=O)[C@H](CC(=O)O)NS(=O)(=O)c1ccc2ccccc2c1` [Example 5, 2-Naphthalenesulphonyl-L-aspartyl pentylamide] are 398 nM, 100 µM and 1000 nM.
On to `CC(C)(C)CCNC(=O)[C@H](CC(=O)O)NS(=O)(=O)c1ccc2ccccc2c1` [Example 6, 2-Naphthalenesulphonyl-L-aspartyl (3,3-dimethyl)-butylamide], for which the Kb in assay [1] was 501 nM. Moreover, the Ki on CCKB receptor is 25.1 µM; at CCKA (setting [2]), 501 nM.
Take `CCCCCCN(C)C(=O)[C@H](CC(=O)O)NS(=O)(=O)c1ccc2ccccc2c1` [Example 7, 2-Naphthalenesulphonyl-L-aspartyl N-(methyl)hexylamide]: the Kb in assay [1] was 316 nM. Also, the results for the Ki on CCKB receptor and on CCKA (setting [2]) were 50.1 µM and 3160 nM, respectively.
As for `CCCCCN(CCCOC)C(=O)[C@H](CC(=O)O)NS(=O)(=O)c1ccc2ccccc2c1` [Example 8, 2-Naphthalenesulphonyl-L-aspartyl N-(3-methoxypropyl)pentylamide], the “pKB versus CCK (gallbladder)” value in assay [1] is 6.7. The “pKi CCKB” value at CCKB receptor (pH 7.2, non-specific binding L-365,260) stood at 4.4. Moreover, on CCKA (guinea-pig pancreas membranes, [125I]-CCK8(S) 200 pM, 0.375 μM PD134,308, 150 minutes at 21°, non-specific binding 100 nM L-364,718), the “pKi CCKλ” value was found to be 5.6.
Consider `CCCCCC(CCCCC)NC(=O)[C@H](CC(=O)O)NS(=O)(=O)c1ccc2ccccc2c1` [Example 9, 2-Naphthalenesulphonyl-L-aspartyl (1-pentyl)hexylamide], for which the Kb in assay [1] was 200 nM. Moreover, the values for the Ki on CCKB receptor and on CCKA (setting [2]) were 3.98 µM and 398 nM, respectively.
As to `O=C(O)C[C@H](NS(=O)(=O)c1ccc2ccccc2c1)C(=O)NCC12CC3CC(CC(C3)C1)C2` [Example 10, 2-Naphthalenesulphonyl-L-aspartyl 1-adamantylmethylamide], the Kb in assay [1] was 63.1 nM. In addition, the values for the Ki on CCKB receptor and at CCKA (setting [2]) were 6.31 µM and 50.1 nM, respectively.
On the same counts, the results for `O=C(O)C[C@H](NS(=O)(=O)c1ccc2ccccc2c1)C(=O)NCCC1CCCCC1` [Example 11, 2-Naphthalenesulphonyl-L-aspartyl 2-cyclohexylethylamide] are 79.4 nM, 25.1 µM and 158 nM.
On to `O=C(O)C[C@H](NS(=O)(=O)c1ccc2ccccc2c1)C(=O)NCCC12CC3CC(CC(C3)C1)C2` [Example 12, 2-Naphthalenesulphonyl-L-aspartyl 2-(1-adamantyl) ethylamide], for which the Kb in assay [1] was 50.1 nM. Moreover, the Ki on CCKB receptor was 7.94 µM; on CCKA (setting [2]), 126 nM.
On to `O=C(O)C[C@H](NS(=O)(=O)c1ccc2ccccc2c1)C(=O)N1CCC2(CC1)OCCO2` [Example 14, 2-Naphthalenesulphonyl-L-aspartyl 1,4-dioxa-8-azaspiro-[5.4]decylamide], for which the Ki on CCKA is 10000 nM.
Take `O=C(O)C[C@H](NS(=O)(=O)c1ccc2ccccc2c1)C(=O)N1CC2CCC(CC2)C1` [Example 15, 2-Naphthalenesulphonyl-L-aspartyl 3-azabicyclo-[3.2.2]nonylamide]: the Ki is 25.1 µM at CCKB receptor and 10000 nM on CCKA (setting [2]).
Consider `CCCCC(CC)CN(CC(CC)CCCC)C(=O)[C@H](CC(=O)O)NS(=O)(=O)c1ccc2ccccc2c1` (stereo partly drawn) [Example 17, 2-Naphthalenesulphonyl-L-aspartyl di(2-ethyl)hexylamide], for which the Ki on CCKB receptor was 2 µM; at CCKA (setting [2]), 1260 nM.
On the same counts, the results for `CCCCCOC(=O)[C@H](CC(=O)O)NS(=O)(=O)c1ccc2ccccc2c1` [Example 20, 2-Naphthalenesulphonyl-L-aspartyl pentyl ester] are 20 µM and 2000 nM.
